Measured values reported in patent publication US8536183B2, “3-pyridylcarbonyl-piperazinylsulfonyl derivatives” (Convergence Pharmaceuticals Limited, priority 2008, dated 2013).
Structures can show the parent of a compound that is named as a salt.

Biological target: T1, hCaV2.2 (Homo sapiens, UniProt Q00975)
T1 construct: expressed in transfected cells; plasmids pCIN5-hCaV2.2, pCIH-hCaV β3, pCIP-α2δ1
Test: hCaV2.2 assay, IonWorks planar array electrophysiology in stably transfected HEK293 cells
Type: cell-based
Conditions: current elicited by the 1st depolarising pulse inhibited by 50%; HEK293 cells expressing human CaV2.2 alpha/beta3/alpha2delta1; read-out: mean pIC50 (tonic pIC50) (converted)
Method: Compounds of the invention may be tested for in vitro biological activity in the hCaV2.2 assay in accordance with the following studies:
Stable cell lines expressing the human CaV2.2 α (als) subunit, along with the human […] and α2δ1 auxiliary subunits were created following sequential transfection and selection of human embryonic kidney (HEK293) cells. HEK293 cells were cultured in Dulbecco's modified Eagles media/F12 media (Invitrogen, Cat #041-95750V) containing 10% foetal bovine serum, with added L-glutamine (2 mM; Invitrogen, Cat #25030-024) and non-essential amino acids (5%; Invitrogen, Cat #11140-035). Initially HEK293 cells were transfected with two plasmid vectors for expression of the hCaV2.2 α subunit (pCIN5-hCaV2.2 which carries a neomycin resistance marker) and the hCaV β3 subunit (pCIH-hCaV β3 which carries a hygromycin resistance marker). Clonal cell lines were isolated following selection in media supplemented with 0.4 mg ml^−1 Geneticin G418 (Invitrogen, Cat #10131-027) and 0.1 mg ml^1 hygromycin (Invitrogen, Cat #10687-010). These clonal cell lines were assessed for Cav2.2α/β3-mediated current expression using the IonWorks planar array electrophysiology technology (described below). A clonal line was identified that gave a reasonable level of functional Cav2.2α/β3 current expression. This cell line was transfected with a plasmid vector for expression of the human […] subunit (pCIP-α2δ1 which carries a puromycin resistance marker) and clonal cell lines isolated following selection in media containing 0.62 μg ml^−1 puromycin (Sigma, Cat #P-7255), in addition to 0.4 mg ml^−1 Geneticin G418 and 0.1 mg ml^−1 hygromycin. Several cell lines were identified that gave robust levels of Cav2.2α/β3/α2δ1-mediated current expression and one of these was selected for compound profiling. Expression of all three subunits within this cell line was continuously maintained by the inclusion of G418 (0.4 mg ml^−1), hygromycin (0.1 mg ml^−1) and puromycin (0.62 μg ml^−1). Cells were maintained at 37° C. in a humidified environment containing 5% CO2 in air. Cells were liberated from the T175 culture flasks for passage and harvesting using TrpLE (Invitrogen, Cat #12604-013).
Cells were grown to 30-60% confluence in T175 flasks and maintained at 30° C. for 24 hrs prior to recording. Cells were lifted by removing the growth media, washing with Ca^2+ free PBS (Invitrogen, Cat #14190-094) and incubating with 3 ml of warmed (37° C.) TrpLE (Invitrogen, Cat #12604-013) for 6 minutes. Lifted cells were suspended in 10 ml of extracellular buffer. Cell suspension was then placed into a 15 ml tube and centrifuged for 2 minutes at 700 rpm. After centrifugation, the supernatant was removed and the cell pellet was resuspended in 4.5 ml of extracellular solution.
Currents were recorded at room temperature (21-23° C.) using the IonWorks planar array electrophysiology technology (Molecular Devices Corp.). Stimulation protocols and data acquisition were carried out using a microcomputer (Dell Pentium 4). In order to determine planar electrode hole resistances (Rp), a 10 mV, 160 ms potential difference was applied across each hole. These measurements were performed before cell addition. After cell addition a seal test was performed prior to antibiotic (amphotericin) circulation to achieve intracellular access. Leak subtraction was conducted in all experiments by applying a 160 ms hyperpolarizing (10 mV) prepulse 200 ms before the test pulses to measure leak conductance. Test pulses stepping from the holding potential (VH) of −90 mV to +10 mV were applied for 20 ms and repeated 10 times at a frequency of 10 Hz. In all experiments, the test pulse protocol was performed in the absence (pre-read) and presence (post-read) of a compound. Pre- and post-reads were separated by a compound addition followed by a 3-3.5 min incubation.
The intracellular solution contained the following (in mM): K-gluconate 120, KCl 20 mM, MgCl2 5, EGTA 5, HEPES 10, adjusted to pH 7.3. […]

T1 sequence (Q00975 whole entry): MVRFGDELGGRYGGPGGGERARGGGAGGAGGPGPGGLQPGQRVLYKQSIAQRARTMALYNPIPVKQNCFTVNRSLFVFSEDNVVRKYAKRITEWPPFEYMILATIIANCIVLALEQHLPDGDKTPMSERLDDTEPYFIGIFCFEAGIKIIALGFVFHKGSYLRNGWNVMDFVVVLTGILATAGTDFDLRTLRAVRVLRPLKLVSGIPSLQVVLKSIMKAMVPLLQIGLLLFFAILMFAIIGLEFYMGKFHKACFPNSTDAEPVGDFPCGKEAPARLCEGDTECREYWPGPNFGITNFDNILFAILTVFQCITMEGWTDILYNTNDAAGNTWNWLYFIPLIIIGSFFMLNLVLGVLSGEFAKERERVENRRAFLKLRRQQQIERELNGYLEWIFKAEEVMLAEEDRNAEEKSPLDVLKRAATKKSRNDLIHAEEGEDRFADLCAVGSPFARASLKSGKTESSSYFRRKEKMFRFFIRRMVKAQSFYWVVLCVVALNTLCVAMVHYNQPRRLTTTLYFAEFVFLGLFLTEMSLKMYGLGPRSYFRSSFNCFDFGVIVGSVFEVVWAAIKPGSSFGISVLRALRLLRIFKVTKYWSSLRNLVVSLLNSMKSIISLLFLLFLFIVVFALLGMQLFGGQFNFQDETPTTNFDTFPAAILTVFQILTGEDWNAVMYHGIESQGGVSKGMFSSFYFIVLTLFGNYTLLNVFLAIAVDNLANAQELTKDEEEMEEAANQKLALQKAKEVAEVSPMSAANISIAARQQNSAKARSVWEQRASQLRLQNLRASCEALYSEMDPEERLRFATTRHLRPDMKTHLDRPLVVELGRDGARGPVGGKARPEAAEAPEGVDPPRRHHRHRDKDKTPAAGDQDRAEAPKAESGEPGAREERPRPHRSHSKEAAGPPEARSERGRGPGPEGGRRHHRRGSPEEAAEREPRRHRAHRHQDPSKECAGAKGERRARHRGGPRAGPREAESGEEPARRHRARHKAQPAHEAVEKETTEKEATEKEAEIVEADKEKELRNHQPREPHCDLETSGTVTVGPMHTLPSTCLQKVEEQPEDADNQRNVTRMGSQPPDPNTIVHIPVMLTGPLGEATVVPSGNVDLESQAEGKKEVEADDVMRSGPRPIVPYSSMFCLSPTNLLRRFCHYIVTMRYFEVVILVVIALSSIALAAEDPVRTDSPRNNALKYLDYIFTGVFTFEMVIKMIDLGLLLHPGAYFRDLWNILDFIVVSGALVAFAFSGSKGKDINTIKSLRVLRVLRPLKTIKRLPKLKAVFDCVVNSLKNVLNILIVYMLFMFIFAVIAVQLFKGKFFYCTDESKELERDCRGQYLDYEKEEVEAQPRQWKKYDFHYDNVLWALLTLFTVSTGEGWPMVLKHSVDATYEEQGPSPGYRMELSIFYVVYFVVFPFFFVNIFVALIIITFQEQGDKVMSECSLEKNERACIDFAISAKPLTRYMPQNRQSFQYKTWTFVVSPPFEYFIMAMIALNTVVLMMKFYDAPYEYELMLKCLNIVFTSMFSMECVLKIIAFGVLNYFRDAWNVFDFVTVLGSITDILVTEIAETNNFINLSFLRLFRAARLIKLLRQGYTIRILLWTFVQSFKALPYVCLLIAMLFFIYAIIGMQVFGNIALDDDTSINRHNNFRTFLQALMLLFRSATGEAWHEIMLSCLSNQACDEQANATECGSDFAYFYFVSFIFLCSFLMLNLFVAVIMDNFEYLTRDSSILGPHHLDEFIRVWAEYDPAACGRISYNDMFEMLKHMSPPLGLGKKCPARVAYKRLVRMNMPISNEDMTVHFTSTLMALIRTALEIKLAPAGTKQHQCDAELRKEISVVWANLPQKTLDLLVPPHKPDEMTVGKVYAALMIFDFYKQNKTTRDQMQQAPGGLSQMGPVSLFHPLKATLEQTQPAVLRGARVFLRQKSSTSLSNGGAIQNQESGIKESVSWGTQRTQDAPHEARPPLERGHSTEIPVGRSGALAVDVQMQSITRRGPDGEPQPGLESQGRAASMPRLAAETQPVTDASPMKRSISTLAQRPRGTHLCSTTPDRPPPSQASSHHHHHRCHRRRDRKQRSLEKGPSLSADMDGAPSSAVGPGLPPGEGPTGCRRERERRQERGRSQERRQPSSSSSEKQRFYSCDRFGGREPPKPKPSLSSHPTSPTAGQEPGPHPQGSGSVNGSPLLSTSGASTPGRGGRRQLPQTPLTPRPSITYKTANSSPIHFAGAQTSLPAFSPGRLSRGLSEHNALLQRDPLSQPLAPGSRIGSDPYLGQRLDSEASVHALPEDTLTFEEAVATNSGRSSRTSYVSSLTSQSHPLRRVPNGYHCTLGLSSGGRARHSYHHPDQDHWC

SMILES: Cc1cc(C#N)ccc1S(=O)(=O)N1CCN(C(=O)c2ccc(N(C)C)nc2)[C@@H](C)C1 [Example 71, 4-[((3S)-4-{[6-(dimethylamino)-3-pyridinyl]carbonyl}-3-methyl-1-piperazinyl)sulfonyl]-3-methylbenzonitrile]
- IC50: ≥ 31.6 µM

SMILES: Cc1cncc(C(=O)N2CCN(S(=O)(=O)c3ccc(C(F)(F)F)cc3)C[C@@H]2C)c1 [Example 16, (2S)-2-Methyl-1-[(5-methyl-3-pyridinyl)carbonyl]-4-{[4-(trifluoromethyl)phenyl]sulfonyl}piperazine]
- IC50: ≥ 31.6 µM

SMILES: Cc1ncccc1C(=O)N1CCN(S(=O)(=O)c2ccc(C(F)(F)F)cc2)C[C@@H]1C [Example 2, (2S)-2-Methyl-1-[(2-methyl-3-pyridinyl)carbonyl]-4-{[4-(trifluoromethyl)phenyl]sulfonyl}piperazine hydrochloride]
- IC50: ≥ 31.6 µM

SMILES: Cc1ncccc1C(=O)N1CCN(S(=O)(=O)c2ccc(C(F)(F)F)cc2)[C@@H](C)C1 [Example 12, (2S)-2-Methyl-4-[(2-methyl-3-pyridinyl)carbonyl]-1-{[4-(trifluoromethyl)phenyl]sulfonyl}piperazine formic acid salt]
- IC50: ≥ 31.6 µM

SMILES: Cc1ccc(C(F)(F)F)cc1S(=O)(=O)N1CCN(C(=O)c2cccnc2C)[C@@H](C)C1 [Example 60, (2S)-2-methyl-1-[(2-methyl-3-pyridinyl)carbonyl]-4-{[2-methyl-5-(trifluoromethyl)phenyl]sulfon-yl}piperazine]
- IC50: ≥ 10 µM

SMILES: COc1ncccc1C(=O)N1CCN(S(=O)(=O)c2ccc(C(F)(F)F)cc2)C[C@@H]1C [Example 15, (2S)-2-Methyl-1-{[2-(methyloxy)-3-pyridinyl]carbonyl}-4-{[4-(trifluoromethyl)phenyl]sulfonyl}piperazine]
- IC50: ≥ 31.6 µM

SMILES: Nc1ccc(C(=O)N2CCN(S(=O)(=O)c3ccc(C(F)(F)F)cc3)CC2)cn1 [Example 66, 5-[(4-{[4-(trifluoromethyl)phenyl]sulfon-yl}-1-piperazinyl)carbonyl]-2-pyridinamine]
- IC50: ≥ 31.6 µM

SMILES: CCN(CC)c1ccc(C(=O)N2CCN(S(=O)(=O)c3ccc(C(F)(F)F)cc3)CC2)cn1 [Example 56, N,N-diethyl-5-[(4-{[4-(trifluoromethyl)phenyl]sulfonyl}-1-piperazinyl)carbonyl]-2-pyridinamine]
- IC50: ≥ 10 µM

SMILES: Cc1ccc(C(=O)N2CCN(S(=O)(=O)c3ccc(C(F)(F)F)cc3)C[C@@H]2C)c(C)n1 [Example 29, (2S)-1-[(2,6-Dimethyl-3-pyridinyl)carbonyl]-2-methyl-4-{[4-(trifluoromethyl)phenyl]sulfonyl}piperazine]
- IC50: ≥ 10 µM
